Positions of bridges follow the written chain, without caps; N, C: chain ends. Non-standard residues stand in square brackets, D forms with d. Residues, ends and D or L forms follow the SMILES beside them. *: point of attachment. FITC = O=C1OC2(c3ccc(O)cc3Oc3cc(O)ccc32)c2ccc(NC(=S)*)cc21; R8 = C=CCCCCCC[C@@](C)(N)C(=O)O; S5 = C=CCCC[C@](C)(N)C(=O)O; AEEA = NCCOCCOCC(=O)O
Experiments:
proteinase K = proteinase K (Parengyodontium album, UniProt P06873); assay: Protease stability assay; assay type: in vitro ADME; conditions: for Half-life (t1/2): proteinase K 10 μg·ml^−1, fluorescein-labeled peptide 50 μM, 10 mM Tris pH 8.0, 150 mM NaCl, room temperature, HPLC absorbance 210 nm, exponential decay fit
Description: Protease stability assays were performed in analogy to a previously published protocol ([47]). Stocks of fluorescein-labeled peptides were prepared to a concentration of 55.5 μM in assay buffer (10 mM Tris, pH 8.0, 150 mM NaCl) and separately stocks of proteinase K also in assay buffer (c = 100 μg·ml^−1). To begin each experiment, peptide and proteinase K stocks were mixed (final concentrations: c = 10 μg·ml^−1 proteinase K, c = 50 μM fluorescein-labeled peptide; final volume = 500 μl) and incubated at room temperature. At each time point, 50 μl of the reaction mixture was quenched by adding 100 μl of TFA/ACN/H2O (v/v/v, 1:49:49) and subsequently incubated for 2 min on ice. Following centrifugation (15 min, 13200 rpm, 4°C), samples (45 μl) were monitored by analytical HPLC using a linear gradient of 10–60% HPLC solvent B over 20 min. The amount of remaining peptide was quantified via absorbance at λ = 210 nm (intact peptide (%)) and plotted against time (t) (h). Half-life (t1/2) was calculated by fitting the data to an exponential decay using the software Prism 5.0 (GraphPad).

miR-21 duplex = assay: Thermal denaturation of miR-21 duplex (CD melting); assay type: binding; conditions: miR-21 2 μM, unlabeled peptide 4 μM
Description: For each sample, 10 CD spectra were measured between λ = 200 and 350 nm with continuous scan mode (1 mdeg sensitivity, 1.0 nm resolution, 1.0 nm bandwidth, 2 s integration time, 100 nm·min^−1 scan rate). Obtained spectra were averaged and then subtracted from a reference buffer spectrum. CD data were normalized to oligonucleotide strand concentration using Formula (1):(1) where θ = observed ellipticity (mdeg), c = DNA strand concentration (mol·l^−1) and l = path length (cm).
Melting temperature (Tm) determination was conducted using the same instrumentation and sample preparation, where ellipticity (θ = 267 nm) was measured by ramping the temperature from 15–90°C (4°C·min^−1 ramp, ±0.05°C equilibration tolerance, 6 s delay after equilibration). Data points were recorded every 0.5°C. Raw data was normalized as described above and Tm-values were determined using the CDpal program ([44]) before being plotted in Prism 5.0 (GraphPad).

K562 cells = assay: Live cell confocal microscopy; assay type: cell-based, human; conditions: fluorescein-labeled peptide 1 μM, 30 min, 37°C
Description: Non-adherent K562 cells were counted and collected in 1.5 ml Eppendorf tubes at 30 000 cells per tube. After a wash, cells were re-suspended in 200 μl of phenol-red free media containing 5% FCS and fluorescein-labeled peptides (c(peptide) = 1 μM, t = 30 min) in the Eppendorf tubes at 37°C with vertical rotation to avoid cell pelleting. After incubation, cells were washed once with phenol-red free media, re-suspended again in the same media, and transferred into the wells of an 8-chamber μ-slide (Ibidi). Cells were immediately imaged at 37°C with an SP5 Laser Scanning Confocal Microscope (Leica). Fluorescein was excited with an argon ion laser at wavelength of 488 nm and fluorescence was detected in the range 505–530 nm.

ds miR-21 = assay: EMSA with ds miR-21; assay type: binding; conditions: peptide 6 μM, ds miR-21 3 μM
Description: Electrophoretic mobility shift assays (EMSAs) were performed using a Bio-Rad Mini-Protean gel system paired with a direct current (DC) power source (PowerPac™ HC, Bio-Rad). Typically, 6 μl solutions containing ds RNA (c = 3 μM) and fluorescein-labeled peptide (c = 6 μM) were incubated in binding buffer (10 mM Tris (pH 8.0), 0.5 mM EDTA, 12.5% glycerol and 150 mM KCl) at 4°C for 1 h. After incubation, bound RNA was resolved from peptide-free RNA using 10% non-denaturing polyacrylamide gels at 120 V in running buffer (25 mM Tris (pH 8.0), 200 mM glycine, 20 mM NaCl) at 4°C for 1 h. Visualization of fluorescent gel-bound species was conducted using a Typhoon Trio + fluorescence scanner (GE Healthcare Life Sciences). For nucleic acid visualization, gels were stained using 2 μl of SYBR™ gold nucleic acid gel dye (Molecular Probes) in 20 ml of TAE buffer (40 mM Tris, 1 mM EDTA, 20 mM acetic acid) for 45 min at RT before being visualized using a FluorChem™ gel documentation system (Alpha Innotech). To assess B3 binding to different ds RNA sequences (Supplementary Figure S20), 6 μl solutions containing hairpin RNA (c = 1 μM) and fluorescein-labeled B3 (c = 2 μM) were incubated in binding buffer (TAE and 10% glycerol) at RT for 1 h, and then resolved using 15% non-denaturing polyacrylamide gels (acrylamide/bis-acrylamide (19:1) in TAE) at 150 V in running buffer (TAE) at 4°C for 1.5 h. Visualization of fluorescent gel-bound species was conducted using a Bio-Rad ChemiDoc (Bio-Rad). Subsequently, gels were stained with SYBR™ gold nucleic acid gel dye (Invitrogen) as described above and visualized using the same imaging system. To assess B3 binding to pre–miR-21 (Supplementary Figure S24), the RNA was prepared at a fixed concentration (c = 1 μM) and incubated with varying concentrations of fluorescein-labeled B3 (c = 0–5 μM) in binding buffer (TAE and 10% glycerol) at RT for 1 h. […]

ds pal-RNA = assay: EMSA with ds pal-RNA; assay type: binding; conditions: fluorescein-labeled peptide 6 μM, RNA 3 μM, 10% native PAGE, 4°C
Description: Electrophoretic mobility shift assays (EMSAs) were performed using a Bio-Rad Mini-Protean gel system paired with a direct current (DC) power source (PowerPac™ HC, Bio-Rad). Typically, 6 μl solutions containing ds RNA (c = 3 μM) and fluorescein-labeled peptide (c = 6 μM) were incubated in binding buffer (10 mM Tris (pH 8.0), 0.5 mM EDTA, 12.5% glycerol and 150 mM KCl) at 4°C for 1 h. After incubation, bound RNA was resolved from peptide-free RNA using 10% non-denaturing polyacrylamide gels at 120 V in running buffer (25 mM Tris (pH 8.0), 200 mM glycine, 20 mM NaCl) at 4°C for 1 h. Visualization of fluorescent gel-bound species was conducted using a Typhoon Trio + fluorescence scanner (GE Healthcare Life Sciences). For nucleic acid visualization, gels were stained using 2 μl of SYBR™ gold nucleic acid gel dye (Molecular Probes) in 20 ml of TAE buffer (40 mM Tris, 1 mM EDTA, 20 mM acetic acid) for 45 min at RT before being visualized using a FluorChem™ gel documentation system (Alpha Innotech). To assess B3 binding to different ds RNA sequences (Supplementary Figure S20), 6 μl solutions containing hairpin RNA (c = 1 μM) and fluorescein-labeled B3 (c = 2 μM) were incubated in binding buffer (TAE and 10% glycerol) at RT for 1 h, and then resolved using 15% non-denaturing polyacrylamide gels (acrylamide/bis-acrylamide (19:1) in TAE) at 150 V in running buffer (TAE) at 4°C for 1.5 h. Visualization of fluorescent gel-bound species was conducted using a Bio-Rad ChemiDoc (Bio-Rad). Subsequently, gels were stained with SYBR™ gold nucleic acid gel dye (Invitrogen) as described above and visualized using the same imaging system. To assess B3 binding to pre–miR-21 (Supplementary Figure S24), the RNA was prepared at a fixed concentration (c = 1 μM) and incubated with varying concentrations of fluorescein-labeled B3 (c = 0–5 μM) in binding buffer (TAE and 10% glycerol) at RT for 1 h. After incubation, bound nucleic acid complexes were resolved using 15% non-denaturing polyacrylamide gels (acrylamide/bis-acrylamide (19:1) in TAE) at 150 V in running buffer (TAE) at 4°C for 1.5 h, followed by visualization and staining with SYBR™ gold nucleic acid gel dye (Invitrogen).

Chain of proteinase K (P06873 106-384): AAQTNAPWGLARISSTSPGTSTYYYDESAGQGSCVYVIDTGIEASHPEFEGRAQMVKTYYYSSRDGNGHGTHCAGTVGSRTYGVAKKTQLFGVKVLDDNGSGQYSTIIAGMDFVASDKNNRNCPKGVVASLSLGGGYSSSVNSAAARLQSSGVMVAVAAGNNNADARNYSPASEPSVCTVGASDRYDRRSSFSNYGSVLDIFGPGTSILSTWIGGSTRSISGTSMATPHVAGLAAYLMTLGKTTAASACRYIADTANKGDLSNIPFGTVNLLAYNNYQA

SMILES	Half-life (t1/2) (proteinase K)	ΔTm of miR-21 duplex (miR-21 duplex)	cell permeability by live cell confocal microscopy (K562 cells)	binding to ds miR-21 in EMSA (ds miR-21)	binding to ds pal-RNA in EMSA (ds pal-RNA)	fold increased stability compared to wt33 (proteinase K; proteinase K, fluorescein-labeled peptides)
CC(C)C[C@H](NC(=O)[C@]1(C)CCCC=CCCC[C@](C)(NC(=O)[C@H](CCC(=O)O)NC(=O)[C@H](CO)NC(=O)[C@@H]2CCCN2C(=O)[C@H](CO)NC(=O)[C@H](CCCCN)NC(=O)[C@H](Cc2c[nH]cn2)NC(=O)CNC(=O)[C@H](CCCNC(=N)N)NC(=O)[C@]2(C)CCCC=CCCC[C@](C)(NC(=O)[C@H](CCCCN)NC(=O)[C@H](Cc3c[nH]cn3)NC(=O)[C@H](CCCNC(=N)N)NC(=O)[C@H](CCCCN)NC(=O)[C@H](CCCNC(=N)N)NC(=O)[C@H](CCC(N)=O)NC(=O)[C@H](C)NC(=O)[C@H](CCC(N)=O)NC(=O)[C@H](CCCCN)NC(=O)[C@H](CCCCN)NC(=O)COCCOCCNC(=S)Nc3ccc4c(c3)C(=O)OC43c4ccc(O)cc4Oc4cc(O)ccc43)C(=O)N[C@@H](CC(N)=O)C(=O)N[C@@H](CCCNC(=N)N)C(=O)N[C@@H](CCCCN)C(=O)N2)C(=O)N[C@@H](CCCNC(=N)N)C(=O)N[C@@H](CCCNC(=N)N)C(=O)N[C@@H](CO)C(=O)N1)C(=O)N[C@@H](Cc1c[nH]c2ccccc12)C(=O)N[C@@H](Cc1c[nH]cn1)C(=O)N[C@@H](C)C(=O)N[C@@H](CCCNC(=N)N)C(N)=O [B3] ({FITC-AEEA}-KKQAQRKRHK[S5]NRK[S5]RGHKSPSE[S5]RRS[S5]LWHAR-NH2; staple 11-15, 24-28)	6.18 h	> 10 °C	confirming their cell permeability	formation of peptide/RNA complexes	full disappearance of the ds pal-RNA band	
CC(C)C[C@@H]1NC(=O)[C@@](C)(NC(=O)[C@H](CO)NC(=O)[C@H](CCCNC(=N)N)NC(=O)[C@H](CCCNC(=N)N)NC(=O)[C@H](CCC(N)=O)NC(=O)[C@H](CCC(=O)O)NC(=O)[C@H](CO)NC(=O)[C@@H]2CCCN2C(=O)[C@H](CO)NC(=O)[C@H](CCCCN)NC(=O)[C@H](Cc2c[nH]cn2)NC(=O)CNC(=O)[C@H](CCCNC(=N)N)NC(=O)[C@H](CCC(=O)O)NC(=O)[C@H](CCCCN)NC(=O)[C@H](CCCNC(=N)N)NC(=O)[C@H](CC(N)=O)NC(=O)[C@]2(C)CCCC=CCCCCCC[C@@](C)(NC(=O)[C@H](CCC(N)=O)NC(=O)[C@H](CCCCN)NC(=O)[C@H](CCCCN)NC(=O)COCCOCCNC(=S)Nc3ccc4c(c3)C(=O)OC43c4ccc(O)cc4Oc4cc(O)ccc43)C(=O)N[C@@H](CCC(N)=O)C(=O)N[C@@H](CCCNC(=N)N)C(=O)N[C@@H](CCCCN)C(=O)N[C@@H](CCCNC(=N)N)C(=O)N[C@@H](Cc3c[nH]cn3)C(=O)N[C@@H](CCCCN)C(=O)N2)CCCC=CCCC[C@@](C)(C(=O)N[C@@H](CCCNC(=N)N)C(N)=O)NC(=O)[C@H](Cc2c[nH]cn2)NC(=O)[C@H](Cc2c[nH]c3ccccc23)NC1=O [C1] ({FITC-AEEA}-KKQ[R8]QRKRHK[S5]NRKERGHKSPSEQRRS[S5]LWH[S5]R-NH2; staple 4-11, 28-32)	10.6 h	> 10 °C	confirming their cell permeability	formation of peptide/RNA complexes	full disappearance of the ds pal-RNA band	265 fold
CC(C)C[C@@H]1NC(=O)[C@H](CCC(=O)O)NC(=O)[C@H](CO)NC(=O)[C@@](C)(NC(=O)[C@H](CCCNC(=N)N)NC(=O)[C@H](CCC(N)=O)NC(=O)[C@H](CCC(=O)O)NC(=O)[C@H](CO)NC(=O)[C@@H]2CCCN2C(=O)[C@H](CO)NC(=O)[C@H](CCCCN)NC(=O)[C@H](Cc2c[nH]cn2)NC(=O)[C@]2(C)CCCC=CCCCCCC[C@@](C)(NC(=O)[C@H](Cc3c[nH]cn3)NC(=O)[C@H](CCCNC(=N)N)NC(=O)[C@H](CCCCN)NC(=O)[C@H](CCCNC(=N)N)NC(=O)[C@H](CCC(N)=O)NC(=O)[C@H](C)NC(=O)[C@H](CCC(N)=O)NC(=O)[C@H](CCCCN)NC(=O)[C@H](CCCCN)NC(=O)COCCOCCNC(=S)Nc3ccc4c(c3)C(=O)OC43c4ccc(O)cc4Oc4cc(O)ccc43)C(=O)N[C@@H](CC(C)C)C(=O)N[C@@H](CC(N)=O)C(=O)N[C@@H](CCCNC(=N)N)C(=O)N[C@@H](CCCCN)C(=O)N[C@@H](CCC(=O)O)C(=O)N[C@@H](CCCNC(=N)N)C(=O)N2)CCCC=CCCC[C@@](C)(C(=O)N[C@@H](Cc2c[nH]cn2)C(=O)N[C@@H](C)C(=O)N[C@@H](CCCNC(=N)N)C(N)=O)NC1=O [D1] ({FITC-AEEA}-KKQAQRKRH[R8]LNRKER[S5]HKSPSEQR[S5]SEL[S5]HAR-NH2; staple 10-17, 26-30)	4.65 h	only showed a mild effect on duplex stability	confirming their cell permeability	did not show binding	does not bind to ds pal-RNA	
